Data published in article PMC3334918, “Mutagenesis and Functional Studies with Succinate Dehydrogenase Inhibitors in the Wheat Pathogen Mycosphaerella graminicola” (PLoS ONE, 2012).

Experiments:
[1] = examination of supplemented AE agar plates for precipitate; type: physicochemical; settings: AE agar plates supplemented with 150 µM (5×MSC), developed over time
[2] = target: succinate dehydrogenase (SDH), WT (IPO323) (Zymoseptoria tritici (Mycosphaerella graminicola), UniProt F9X9V6+F9XG45+F9XH52); experiment: in vitro succinate: Q0/DCPIP activity test, purified mitochondria; type: biochemical; settings: read-out: IC50 in vitro, ±S.E. (triplicate)
Method: (§1) To explore the sensitivity profiles conferred by amino acid substitutions at the cellular and mitochondrial level, we determined sensitivity towards 4 different compounds for 26 of the identified substitution types both in vivo using liquid culture growth (AE media) and in vitro using purified mitochondria and the succinate: Q0/DCPIP activity test (Table 3). […] Resistance factors (RF) were determined as the ratio IC50mutant/IC50WT. […] Qp site mutations are well known to influence SDH enzyme activity and stability upon catalysis, [13], [38], [41].
Strains were grown in 1 liter TSM40 units. Cultures were inoculated at 0.05 OD600 nm and grown on a reciprocal shaker (110 rpm, 22°C) for 5 days. Cells were harvested by vacuum filtration and disrupted in liquid nitrogen using a mortar and pestle. Resultant powder was re-suspended to 10% w/v in mitochondrial extraction buffer (10 mM KHPO4 pH7.2; 10 mM KCl, 10 mM MgCl2, 0.5 M sucrose, 0.2 mM EDTA, 2 mM PMSF). Extract was clarified by centrifugation (5,000 g, 4°C for 10 minutes, 2 times), intact mitochondria were then pelleted at 10,000 g for 20 minutes at 4°C. […] This volume was transferred to conical 1.5 ml tubes and re-centrifuged, 10,000 g for 10 minutes at 4°C. […] Mitochondrial suspensions were brought to a final concentration of 10 mg ml^−1 in extraction buffer and stored at −80°C until used.
Mitochondrial suspensions were incubated at 30°C for 30 minutes in extraction buffer supplemented with 10 mM succinate prior to enzymatic measurements.
A reaction plate was equilibrated for 10 minutes at 30°C before starting the reaction. DCPIP reduction was conducted at 30°C and monitored at 595 nm using a HTS7000 microtiterplate reader (Perkin Elmer). For calculations a molecular extinction coefficient of ε = 17 mM^−1 cm^−1 was used.
Inhibitor concentrations ranged between 1 mM and 0.95 nM with uniform 4× dilution factor steps (11 inhibitor concentrations+DMSO control). 96 wells plates were pre equilibrated at reaction temperature (30°C) for 10 minutes before the reactions were started by the addition of 5 µl preactivated M. graminicola mitochondrial suspension. Calculated absorbance slopes (OD/hour) were used for IC50 calculations using Graphpad Prism 5.0 software non linear curve fitting against log inhibitor concentrations.

[3] = system: M. graminicola WT (IPO323); experiment: microbe, parasite or virus in culture; type: cell-based, Mycosphaerella graminicola; settings: Zymoseptoria tritici; WT (IPO323), liquid culture growth, ±S.E. (triplicate); read-out: IC50 in vivo
Method: as §1
(§2) Conidial cells were collected from 4 day old V8 agar plates (cultured at 18°C in the dark) using liquid AE and a cell spreader. Cell density was determined and cells re-suspended to a concentration of 5×10^5 cells ml^−1 in AE media. Sterile 96 wells microtiter plates with lids (Costar) were inoculated with 198 µl of this cell suspension (10^5 cells per well) and 2 µl of inhibitor (100× in DMSO). Final inhibitor concentrations were between 0.95 nM and 1 mM with uniform 4× dilution factor steps (11 inhibitor concentrations+1 DMSO control). Plates were incubated for 6 days at 19°C in the dark before cells were re-suspended and measured for growth (OD600 nm). IC50 values were determined by non linear curve fitting on the basis of measured OD values versus log inhibitor concentrations (GraphPad Prism 5.0 software).

[4] = system: M. graminicola strain Cbx28 (SDHB_H267Y); experiment: in vivo sensitivity, liquid culture growth (AE media); type: cell-based, Mycosphaerella graminicola; settings: M. graminicola SDHB_H267Y; compound A: data not shown
Method: as §1, §2

[5] = system: M. graminicola isolate IPO323; experiment: UV mutagenesis and selection of resistant colonies on carboxamide amended AE agar; type: cell-based, Mycosphaerella graminicola
Method: (§3) Selection plates were produced after adding 1% of a 100× DMSO solution of the active ingredients to pre-melted AE-agar.
Cells were harvested from 4 days old V8 agar plates and conidial cells were suspended in liquid AE. 10^7 cells were spread onto carboxamide amended AE agar plates and mutagenized using UV Stratalinker 2400 (Stratagene) with 75 mJ cm^−2 or 50 mJ cm^−2. […] Selection plates were incubated in the dark at 20°C for 14 days. Visible colonies were picked from the primary selection plate and re-grown on fresh selection media for 2 additional weeks under the same conditions.

[6] = system: wild type IPO323 M. graminicola strain; type: cell-based, Mycosphaerella graminicola; settings: minimal concentration to fully inhibit growth of WT IPO323, AE agar, 10^7 cells, 2 weeks at 20°C in the dark
From the text: as §3

Chain of succinate dehydrogenase (SDH), WT (IPO323) (F9XG45 entry or part of it): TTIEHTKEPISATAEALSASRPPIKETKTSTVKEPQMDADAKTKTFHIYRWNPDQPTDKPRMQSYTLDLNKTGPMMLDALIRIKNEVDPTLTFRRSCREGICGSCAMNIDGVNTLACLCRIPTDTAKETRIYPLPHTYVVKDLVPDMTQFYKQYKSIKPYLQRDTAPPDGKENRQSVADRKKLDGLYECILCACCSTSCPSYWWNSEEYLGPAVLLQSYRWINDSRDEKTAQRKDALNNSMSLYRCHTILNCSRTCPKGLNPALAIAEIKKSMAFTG
Chain of succinate dehydrogenase (SDH), WT (IPO323) (F9X9V6 entry or part of it): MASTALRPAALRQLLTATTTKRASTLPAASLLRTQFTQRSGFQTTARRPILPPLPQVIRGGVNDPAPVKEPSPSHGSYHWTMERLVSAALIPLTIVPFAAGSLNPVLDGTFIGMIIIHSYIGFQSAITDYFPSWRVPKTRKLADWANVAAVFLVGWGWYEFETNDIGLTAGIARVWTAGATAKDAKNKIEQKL
Chain of succinate dehydrogenase (SDH), WT (IPO323) (F9XH52 entry or part of it): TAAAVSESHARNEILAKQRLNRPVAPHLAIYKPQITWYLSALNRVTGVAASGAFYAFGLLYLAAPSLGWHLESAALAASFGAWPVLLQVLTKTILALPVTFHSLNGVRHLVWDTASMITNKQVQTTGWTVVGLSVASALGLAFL

**Q.** Which “precipitation in the media” value [1] does the source give for `O=C(Nc1ccccc1-c1ccc(Cl)cc1)c1cccnc1Cl` [Boscalid] here?
**A.** Its value is “white precipitate”.

**Q.** And the IC50 [2]?
**A.** Its IC50 is 60 ± 1.8 nM.

**Q.** And the IC50 [3]?
**A.** The IC50 was 455 ± 47 nM.

**Q.** With `CC1=C(C(=O)Nc2ccccc2)SCCO1` [Carboxin] as the compound, how does the IC50 [2] read?
**A.** Its IC50 is 1160 ± 102 nM.

**Q.** And the IC50 [3]?
**A.** Its IC50 is 6470 ± 1080 nM.

**Q.** What does the source list for `O=C(NCCc1ncc(C(F)(F)F)cc1Cl)c1ccccc1C(F)(F)F` [Fluopyram]?
**A.** sensitivity / control of the SDHB_H267Y mutant compared to the WT [4]: hypersensitivity; IC50 [2]: 44 ± 2.2 nM; IC50 [3]: 584 ± 100 nM

**Q.** For `CC(C)C1C2CCC1c1c(NC(=O)c3cn(C)cc3C(F)(F)F)cccc12` (centres unmarked) [compound A], which “sensitivity / control of the SDHB_H267Y mutant compared to the WT” value [4] is on record?
**A.** The value was “better control”.

**Q.** And the “Frequency (of resistance development)” value ([5]; selection at MSC, UV treatment 50 mJ cm^−2)?
**A.** Its value is 1.4E-07.

**Q.** What about the “Frequency (of resistance development)” value ([5]; selection at MSC, UV treatment 75 mJ cm^−2) of the same compound?
**A.** Its value is 2.1E-07.

**Q.** And the “Frequency (of resistance development)” value ([5]; selection at […] MSC, UV treatment 50 mJ cm^−2)?
**A.** Its value is 2.1E-07.

**Q.** And the “Frequency (of resistance development)” value ([5]; selection at […] MSC, UV treatment 75 mJ cm^−2)?
**A.** Its value is 1.9E-07.

**Q.** What about the “Minimal selective concentration (MSC)” value [6] of the same compound?
**A.** Its value is “compound A 100 µM (MSC)”.
